Data as given in patent publication US20200270225A1, “Chiral Diacylhydrazine Ligands for Modulating the Expression of Exogenous Genes via an Ecdysone Receptor Complex” (Intrexon Corporation, priority 2007, published 2020).
Like-named read-outs stand apart in the source and are kept apart here.

Key:
[1] = molecular target: T1, [V390I/Y410E/E274V]-CfEcR (Choristoneura fumiferana, UniProt O77240); type: cell-based; settings: 3T3 Cells; for RMFI (relative maximum fold induction): relative to GS-E ligand
T1 construct: assay construct b835
Protocol: (§1) Cellular gene switch assays were performed by transiently transfecting the following constructs in mouse embryonic fibroblast cells (NIH3T3). The wild-type D, E and F domains from Choristoneura fumiferana EcR or its V390I/Y410E/E274V mutant were fused to GAL4-DBD and placed under the control of the CMV promoter in the pBIND vector (Promega Corporation, Madison, Wis., USA). The DEF domains of EcRs shown were amplified using primers designed based on 20-25 nt sequences at the 5′ and 3′ ends. Restriction enzyme sites EcoR I/BamH I and Xba I were added to 5′ and 3′ primers respectively. The PCR products were digested with appropriate restriction enzymes and cloned into pBIND vector. The EcR LBDs cloned into pBIND vector were verified by sequencing. A chimeric RXR from Homo sapiens RXRP and Locusta migratoria RXR, fused to VP16-AD and placed under the control of an SV40e promoter, was constructed as previously described (Kumar P & Katakam A in Gene Transfer, Friedmann T and Rossi J, eds, pp. 643-651 (2007), Cold Spring Harbor Laboratory Press, Cold Spring Harbor, N.Y.). The inducible luciferase reporter plasmid pFRLuc (Stratagene Cloning Systems, La Jolla, Calif., USA), contains five copies of the GAL4 response element and a synthetic minimal promoter.
(§2) NIH3T3 cells were maintained at 37′C and 5% CO2 in Dulbecco's modified Eagle's medium (DMEM) supplemented with 10% bovine calf serum, both obtained from Mediatech Inc., Manassas, Va. Cells were planted in a 96-well plate at a density of 2,500 cells/well in 50 μL of growth medium. The following day cells were first treated with 35 μL of serum-free DMEM containing dimethyl sulfoxide (DMSO; control) or a DMSO solution containing ligand. Cells were then transfected with 15 μl of serum-free DMEM containing 0.04 μg of EcR construct, 0.04 ug of RXR construct, and 0.16 μg of luciferase reporter construct per well, using SuperFect™ transfection reagent (Qiagen Inc., Valencia, Calif., USA) according to the manufacturer's instructions. Ligands were tested at 8 doses from 0.01-33 μM and the final DMSO concentration was 0.33% in both control and treatment wells. After a 48 hour post-treatment and transfection incubation, the cells were assayed for luciferase activity using the Bright-Glo™ Luciferase Assay System (Promega Corporation, Madison, Wis., USA) following the manufacturer's instructions. EC50 values were measured minimally in duplicate.
(§3) Luciferase reporter gene expression was measured 48 h after cell treatment using Bright-Glo™ Luciferase Assay System from Promega (E2650). Luminescence was detected at room temperature using a Dynex MLX microtiter plate luminometer.
(§4) Each assay was conducted in two separate wells, and the two values were averaged. Fold inductions were calculated by dividing relative light units (“RLU”) in ligand treated cells with RLU in DMSO treated cells. EC50s were calculated from dose response data using a three-parameter logistic model. Relative Max FI was determined as the maximum fold induction of the tested ligand (an embodiment of the invention) observed at any concentration relative to the maximum fold induction of GS™-E ligand (3,5-dimethyl-benzoic acid N-tert-butyl-N′-(2-ethyl-3-methoxy-benzoyl)-hydrazide) observed at any concentration.

[2] = molecular target: wild-type Choristoneura fumiferana EcR (D, E and F domains) (Choristoneura fumiferana, UniProt O77240); type: cell-based; settings: WT-CtEcR, 3T3 Cells; for RMFI (relative maximum fold induction): relative to GS-E ligand
Protocol: as §1, §2, §3, §4

## Cc1cc(C)cc(C(=O)N(NC(=O)OCc2ccccc2)[C@@H](CCCO)C(C)(C)C)c1 [Example 63, (S)—N′-(1-tert-Butyl-4-hydroxy-butyl)-N′-(3,5-dimethyl-benzoyl)-hydrazine Carboxylic Acid Benzyl Ester]
[1]; S
  EC50: > 10000 nM
[2]; S
  EC50: > 10000 nM

## CCC[C@H](N(NC(=O)c1cccs1)C(=O)c1cc(C)cc(C)c1)C(C)(C)C [Example 43, (S)-3,5-Dimethyl-benzoic acid N-(1-tert-butyl-butyl)-N′-(thiophene-2-carbonyl)-hydrazide]
[1]; S
  EC50: 1060 nM
  RMFI (relative maximum fold induction): 0.52
[2]; S
  EC50: ~10000 nM
  RMFI (relative maximum fold induction): 0.07

## CCC[C@@H](C1CCCCC1)N(NC(=O)c1ccccc1)C(=O)c1cc(C)cc(C)c1 [Example 57, (S)-3,5-Dimethyl-benzoic acid N′-benzoyl-N-(1-cyclohexyl-butyl)-hydrazide]
[1]; S
  EC50: 769 nM
  RMFI (relative maximum fold induction): 0.50
[2]; S
  EC50: 2750 nM
  RMFI (relative maximum fold induction): 0.32

## CCC[C@H](N(NC(=O)c1cccnc1Cl)C(=O)c1cc(C)cc(C)c1)C(C)(C)C [Example 45, (S)-3,5-Dimethylbenzoic acid N-(1-tert-butyl-butyl)-N′-(2-chloro-pyridine-3-carbonyl)-hydrazide]
[1]; S
  EC50: 1470 nM
  RMFI (relative maximum fold induction): 0.80
[2]; S
  EC50: ~20000 nM
  RMFI (relative maximum fold induction): 0.05

## CCCC(N(NC(=O)c1ccc(OC)cc1)C(=O)c1cc(C)cc(C)c1)C(C)(C)C (racemic) [rac-13]
[1]; rac, read-out: EC50
  EC50: ~5 nM
[1]; rac
  RMFI (relative maximum fold induction): 0.71
[2]; rac, read-out: EC50
  EC50: ~100 nM
[2]; rac
  RMFI (relative maximum fold induction): 0.54

## CCCC(N(NC(=O)c1ccc(C)cc1)C(=O)c1cc(C)cc(C)c1)C(C)(C)C (racemic) [rac-11]
[1]; rac, read-out: EC50
  EC50: 6.3 nM
[1]; rac
  RMFI (relative maximum fold induction): 0.73
[2]; rac, read-out: EC50
  EC50: 89 nM
[2]; rac
  RMFI (relative maximum fold induction): 0.66

## CCC[C@@H](C1CCCCC1)N(NC(=O)c1cccc(OC)c1CC)C(=O)c1cc(C)cc(C)c1 [Example 56, (S)-3,5-Dimethyl-benzoic acid N-(1-cyclohexyl-butyl)-N′-(2-ethyl-3-methoxy-benzoyl)-hydrazide]
[1]; S
  EC50: 107 nM
  RMFI (relative maximum fold induction): 0.52
[2]; S
  EC50: 159 nM
  RMFI (relative maximum fold induction): 0.37

## CCC[C@@H](N(NC(=O)c1cccc(OC)c1C)C(=O)c1cc(OC)c(C)c(OC)c1)C(C)(C)C [Example 51, (R)-3,5-Dimethoxy-4-methyl-benzoic acid N-(1-tert-butyl-butyl)-N′-(3-methoxy-2-methyl-benzoyl)-hydrazide]
[1]; R
  EC50: 0.56 nM
  RMFI (relative maximum fold induction): 0.81
[2]; R
  EC50: ~70 nM
  RMFI (relative maximum fold induction): 1.00

## CCCC(N(NC(=O)c1ccc(Cl)nc1)C(=O)c1cc(C)cc(C)c1)C(C)(C)C (racemic) [rac-28]
[1]; rac, read-out: EC50
  EC50: 47 nM
[1]; rac
  RMFI (relative maximum fold induction): 0.68
[2]; rac, read-out: EC50
  EC50: 470 nM
[2]; rac
  RMFI (relative maximum fold induction): 0.70

## CCCC(N(NC(=O)c1cccc2ccccc12)C(=O)c1cc(C)cc(C)c1)C(C)(C)C (racemic) [rac-23]
[1]; rac, read-out: EC50
  EC50: 66 nM
[1]; rac
  RMFI (relative maximum fold induction): 0.84
[2]; rac, read-out: EC50
  EC50: 521 nM
[2]; rac
  RMFI (relative maximum fold induction): 0.60

## CCCC(N(NC(=O)c1cc(OC)c(C)c(OC)c1)C(=O)c1cc(C)cc(C)c1)C(C)(C)C (racemic) [rac-19]
[1]; rac, read-out: EC50
  EC50: 3930 nM
[1]; rac
  RMFI (relative maximum fold induction): 0.15
[2]; rac, read-out: EC50
  EC50: > 10000 nM

## CCC[C@H](C1CCCCC1)N(NC(=O)c1ccccc1)C(=O)c1cc(C)cc(C)c1 [Example 53, (R)-3,5-Dimethyl-benzoic acid N′-benzoyl-N-(1-cyclohexyl-butyl)-hydrazide]
[1]; R
  EC50: 629 nM
  RMFI (relative maximum fold induction): 0.62
[2]; R
  EC50: ~3300 nM
  RMFI (relative maximum fold induction): 0.30

## CCCC(N(NC(=O)c1cccs1)C(=O)c1cc(C)cc(C)c1)C(C)(C)C (racemic) [rac-25]
[1]; rac, read-out: EC50
  EC50: 172 nM
[1]; rac
  RMFI (relative maximum fold induction): 0.89
[2]; rac, read-out: EC50
  EC50: 3160 nM
[2]; rac
  RMFI (relative maximum fold induction): 0.52

## CCC[C@@H](C1CCCCC1)N(NC(=O)c1cccc(OC)c1)C(=O)c1cc(C)cc(C)c1 [Example 58, (S)-3,5-Dimethyl-benzoic acid N-(1-cyclohexyl-butyl)-N′-(3-methoxy-benzoyl)-hydrazide]
[1]; S
  EC50: 121 nM
  RMFI (relative maximum fold induction): 0.42
[2]; S
  EC50: ~3300 nM
  RMFI (relative maximum fold induction): 0.25

## CCC[C@H](N(NC(=O)c1c(Cl)cccc1Cl)C(=O)c1cc(C)cc(C)c1)C(C)(C)C [Example 41, (S)-3,5-Dimethyl-benzoic acid N-(1-tert-butyl-butyl)-N′-(2,6-dichloro-benzoyl)-hydrazide]
[1]; S
  EC50: ~700 nM
  RMFI (relative maximum fold induction): 0.62
[2]; S
  EC50: ~3300 nM
  RMFI (relative maximum fold induction): 0.10

## CCCC(N(NC(=O)c1cc(F)cc(F)c1)C(=O)c1cc(C)cc(C)c1)C(C)(C)C (racemic) [rac-18]
[1]; rac, read-out: EC50
  EC50: ~3 nM
[1]; rac
  RMFI (relative maximum fold induction): 1.00
[2]; rac, read-out: EC50
  EC50: 30.5 nM
[2]; rac
  RMFI (relative maximum fold induction): 0.26

## CCC[C@@H](N(NC(=O)c1cccnc1Cl)C(=O)c1cc(C)cc(C)c1)C(C)(C)C [Example 27, (R)-3,5-Dimethyl-benzoic acid N-(1-tert-butyl-butyl)-N′-(2-chloro-pyridine-3-carbonyl)-hydrazide]
[1]; R
  EC50: 7 nM
  RMFI (relative maximum fold induction): 0.73
[2]; R
  EC50: 95.2 nM
  RMFI (relative maximum fold induction): 0.70

## CCCC(N(NC(=O)c1ccc2c(c1CC)OCCO2)C(=O)c1cc(C)cc(C)c1)C(C)(C)C (racemic) [rac-22]
[1]; rac, read-out: EC50
  EC50: 0.059 nM
[1]; rac
  RMFI (relative maximum fold induction): 0.79
[2]; rac, read-out: EC50
  EC50: 0.499 nM
[2]; rac
  RMFI (relative maximum fold induction): 0.88

## CCCC(N(NC(=O)c1ccccc1Br)C(=O)c1cc(C)cc(C)c1)C(C)(C)C (racemic) [rac-7]
[1]; rac, read-out: EC50
  EC50: ~3 nM
[1]; rac
  RMFI (relative maximum fold induction): 1.28
[2]; rac, read-out: EC50
  EC50: 86 nM
[2]; rac
  RMFI (relative maximum fold induction): 0.63

## CCC[C@@H](N(NC(=O)c1ccc(Cl)nc1)C(=O)c1cc(C)cc(C)c1)C(C)(C)C [Example 28, (R)-3,5-Dimethyl-benzoic acid N-(1-tert-butyl-butyl)-N′-(6-chloro-pyridine-3-carbonyl)-hydrazide]
[1]; R
  EC50: ~20 nM
  RMFI (relative maximum fold induction): 0.78
[2]; R
  EC50: 243 nM
  RMFI (relative maximum fold induction): 0.38

## CCC[C@@H](N(NC(=O)c1ccccc1OC)C(=O)c1cc(C)cc(C)c1)C(C)(C)C [Example 4, (R)-3,5-Dimethyl-benzoic acid N-(1-tert-butyl-butyl)-N′-(2-meihoxy-benzoyl)-hydrazide]
[1]; R
  EC50: 99 nM
  RMFI (relative maximum fold induction): 0.52
[2]; R
  EC50: 993 nM
  RMFI (relative maximum fold induction): 0.38

## CCCC(N(NC(=O)OC(C)(C)C)C(=O)c1cc(C)cc(C)c1)C(C)(C)C (racemic) [rac-49, rac-N′-(1-tert-Butyl-butyl)-N′-(3,5-dimethyl-benzoyl)-hydrazinecarboxylic acid tert-butyl ester]
[1]; rac
  EC50: ~4000 nM
  RMFI (relative maximum fold induction): 0.50
[2]; rac
  EC50: > 33000 nM
  RMFI (relative maximum fold induction): 0.02

## CCCC(N(NC(=O)c1cccc(OC)c1CC)C(=O)c1cc(C)cc(C)c1)C(C)(C)C (racemic) [rac-2]
[1]; rac, read-out: EC50
  EC50: 3.9 nM
[1]; rac
  RMFI (relative maximum fold induction): 0.85
[2]; rac, read-out: EC50
  EC50: ~100 nM
[2]; rac
  RMFI (relative maximum fold induction): 0.60
